Our source for the IC50 values is US20250361230A1, “LATS Inhibitors and Uses Thereof” (The USA, as Represented by the Secretary, Dept. of Heath …, priority 2022, published 2025).

In the assay the target is T1, LATS1 (Homo sapiens, UniProt O95835).
T1 sequence (O95835 1-1130): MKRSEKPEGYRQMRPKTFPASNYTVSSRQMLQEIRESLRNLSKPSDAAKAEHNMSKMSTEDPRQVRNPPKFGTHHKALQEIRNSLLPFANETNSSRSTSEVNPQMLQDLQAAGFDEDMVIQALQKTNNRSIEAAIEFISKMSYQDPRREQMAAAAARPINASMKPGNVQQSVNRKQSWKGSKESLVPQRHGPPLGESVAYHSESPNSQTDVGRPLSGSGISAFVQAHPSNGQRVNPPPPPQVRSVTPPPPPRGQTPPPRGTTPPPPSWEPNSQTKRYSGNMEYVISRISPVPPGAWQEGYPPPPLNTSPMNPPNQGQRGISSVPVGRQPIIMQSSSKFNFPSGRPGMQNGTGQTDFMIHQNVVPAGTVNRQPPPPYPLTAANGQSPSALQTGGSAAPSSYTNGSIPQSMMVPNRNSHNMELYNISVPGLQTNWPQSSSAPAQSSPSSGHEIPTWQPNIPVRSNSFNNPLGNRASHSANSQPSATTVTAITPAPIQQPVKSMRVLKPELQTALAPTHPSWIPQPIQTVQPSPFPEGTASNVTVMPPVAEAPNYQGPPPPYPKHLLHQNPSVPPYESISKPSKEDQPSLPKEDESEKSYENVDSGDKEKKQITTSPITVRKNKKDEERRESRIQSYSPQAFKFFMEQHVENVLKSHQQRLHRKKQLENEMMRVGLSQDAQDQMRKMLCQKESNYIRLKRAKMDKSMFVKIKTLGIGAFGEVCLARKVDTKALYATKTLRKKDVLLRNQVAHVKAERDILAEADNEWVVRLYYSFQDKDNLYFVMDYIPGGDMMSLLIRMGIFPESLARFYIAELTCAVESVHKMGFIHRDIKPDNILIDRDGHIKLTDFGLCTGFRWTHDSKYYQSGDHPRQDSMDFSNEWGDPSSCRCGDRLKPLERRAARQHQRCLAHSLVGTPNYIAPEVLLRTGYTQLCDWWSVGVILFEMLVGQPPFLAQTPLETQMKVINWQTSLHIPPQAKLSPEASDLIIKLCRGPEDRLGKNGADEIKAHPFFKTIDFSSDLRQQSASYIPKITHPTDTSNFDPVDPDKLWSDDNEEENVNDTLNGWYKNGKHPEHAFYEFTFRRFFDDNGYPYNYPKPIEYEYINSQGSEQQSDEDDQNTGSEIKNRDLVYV
Nature of the assay: RBC HotSpot kinase assay (33P-ATP, P81 filter-binding), LATS1. In kind it is biochemical. Particulars: Table 28, biochemical kinase assay; read-out: LATS1 IC50. The method, boiled down: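 Compounds were run as single 10-point titrations to give IC50 values in nM. Each kinase was mixed with substrate and cofactors in 20 mM Hepes pH 7.5 reaction buffer with 1% DMSO, then exposed to compound for 20 min. 33P-ATP was added for a 2 h room-temperature reaction, with activity measured by P81 filter binding.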

pIC50: −log10 of the molar value.

Take `C[C@@H]1CNC[C@H](C)[C@@]1(O)c1ccc(-c2ccnc3[nH]cc(F)c23)cc1Cl` [Compound 1, (3S,4S,5R)-4-(2-chloro-4-(3-fluoro-1H-pyrrolo[2,3-b]pyridin-4-yl)phenyl)-3,5-dimethylpiperidin-4-ol]: the pIC50 is 7.95. The value for `C[C@@H]1CNC[C@H](C)[C@@]1(O)c1ccc(-c2ccnc3[nH]cc(F)c23)cc1` [Compound 2, (3R,4s,5S)-4-(4-(3-fluoro-1H-pyrrolo[2,3-b]pyridin-4-yl)phenyl)-3,5-dimethylpiperidin-4-ol] was 7.80; that for `C[C@@H]1CNC[C@H](C)[C@@]1(O)c1ccc(-c2ccnc3[nH]cc(F)c23)cc1F` [Compound 7, (3S,4s,5R)-4-(2-fluoro-4-(3-fluoro-1H-pyrrolo[2,3-b]pyridin-4-yl)phenyl)-3,5-dimethyl piperidin-4-ol] was 7.80.

For `C[C@@H]1CNC[C@H](C)[C@@]1(O)c1ccc(-c2ccnc3[nH]cc(F)c23)nc1` [Compound 8, (3S,4s,5R)-4-(6-(3-fluoro-1H-pyrrolo[2,3-b]pyridin-4-yl)pyridin-3-yl)-3,5-dimethylpiperidin-4-ol], the pIC50 is 7.28. The value for `Cc1cc(-c2ccnc3[nH]cc(F)c23)ccc1[C@@]1(O)[C@H](C)CNC[C@@H]1C` [Compound 9, (3S,4s,5R)-4-(4-(3-fluoro-1H-pyrrolo[2,3-b]pyridin-4-yl)-2-methylphenyl)-3,5-dimethylpiperidin-4-ol] was 8.03; that for `C[C@@H]1CNC[C@H](C)[C@@]1(O)c1c(F)cc(-c2ccnc3[nH]cc(F)c23)cc1F` [Compound 13] was 8.07; that for `C[C@@H]1CNC[C@H](C)[C@@]1(O)c1ccc(-c2ccnc3[nH]cc(F)c23)cc1OC(F)(F)F` [Compound 14, (3S,4s,5R)-4-(4-(3-fluoro-1H-pyrrolo[2,3-b]pyridin-4-yl)-2-(trifluoromethoxy)phenyl)-3,5-dimethylpiperidin-4-ol] was 8.27. The value for `C[C@@H]1CN(Cc2ccccn2)C[C@H](C)[C@@]1(O)c1c(F)cc(-c2ccnc3[nH]cc(F)c23)cc1F` [Compound 17, (3S,4s,5R)-4-(2,6-difluoro-4-(3-fluoro-1H-pyrrolo[2,3-b]pyridin-4-yl)phenyl)-3,5-dimethyl-1-(pyridin-2-ylmethyl)piperidin-4-ol] was 7.96; that for `C[C@@H]1CN(C)C[C@H](C)[C@@]1(O)c1cnc(-c2ccnc3[nH]cc(F)c23)cc1Cl` [Compound 22, (3S,4s,5R)-4-(4-chloro-6-(3-fluoro-1H-pyrrolo[2,3-b]pyridin-4-yl)pyridin-3-yl)-1,3,5-trimethylpiperidin-4-ol] was 8.96; that for `Cc1cc(-c2ccnc3[nH]cc(F)c23)ccc1[C@@]1(O)[C@H](C)CN(C2COC2)C[C@@H]1C` [Compound 24, (3S,4s,5R)-4-(4-(3-fluoro-1H-pyrrolo[2,3-b]pyridin-4-yl)-2-methylphenyl)-3,5-dimethyl-1-(oxetan-3-yl)piperidin-4-ol] was 8.24. As for `Cc1cc(-c2ccnc3[nH]cc(F)c23)ccc1[C@@]1(O)[C@H](C)CN(C(C)C)C[C@@H]1C` [Compound 29, (3S,4s, 5R)-4-(4-(3-fluoro-1H-pyrrolo[2,3-b]pyridin-4-yl)-2-methylphenyl)-1-isopropyl-3,5-dimethylpiperidin-4-ol], the pIC50 is 8.89. As to `Cc1cc(-c2ccnc3[nH]cc(F)c23)cc(F)c1C1(O)[C@H](C)CN(C2COC2)C[C@@H]1C` (stereo partly drawn) [Compound 30, (3S,5R)-4-(2-fluoro-4-(3-fluoro-1H-pyrrolo[2,3-b]pyridin-4-yl)-6-methylphenyl)-3,5-dimethyl-1-(oxetan-3-yl)piperidin-4-ol], the negative logarithm of the IC50 (pIC50) is 8.23. The value for `C[C@@H]1CN(C2CCS(=O)(=O)CC2)C[C@H](C)C1(O)c1c(F)cc(-c2ccnc3[nH]cc(F)c23)cc1F` (stereo partly drawn) [Compound 31, 4-((3S,5R)-4-(2,6-difluoro-4-(3-fluoro-1H-pyrrolo[2,3-b]pyridin-4-yl)phenyl)-4-hydroxy-3,5-dimethylpiperidin-1-yl)tetrahydro-2H-thiopyran 1,1-dioxide] was 8.17; that for `C[C@@H]1CN(C)C[C@H](C)[C@@]1(O)c1ccc(-c2ccnc3[nH]cc(F)c23)cc1` [Compound 39, (3R,4s,5S)-4-(4-(3-fluoro-1H-pyrrolo[2,3-b]pyridin-4-yl)phenyl)-1,3,5-trimethylpiperidin-4-ol] was 7.71.

As to `C[C@@H]1CN(C)C[C@H](C)[C@@]1(O)c1ccc(-c2ccnc3[nH]cc(F)c23)nc1` [Compound 41, (3R,4s,5S)-4-(6-(3-fluoro-1H-pyrrolo[2,3-b]pyridin-4-yl)pyridin-3-yl)-1,3,5-trimethylpiperidin-4-ol], the pIC50 was 7.21. On to `C[C@@H]1CN(C2COC2)C[C@H](C)[C@@]1(O)c1c(F)cc(-c2ccnc3[nH]cc(F)c23)cc1F` [Compound 45, (3S,4s,5R)-4-(2,6-difluoro-4-(3-fluoro-1H-pyrrolo[2,3-b]pyridin-4-yl)phenyl)-3, S-dimethyl-1-(oxetan-3-yl)piperidin-4-ol], for which the negative-log IC50 (pIC50) was 8.47. The value for `C[C@@H]1CN(C2CCC2)C[C@H](C)[C@@]1(O)c1c(F)cc(-c2ccnc3[nH]cc(F)c23)cc1F` [Compound 46, (3R,4s,5S)-1-cyclobutyl-4-(2,6-difluoro-4-(3-fluoro-1H-pyrrolo[2,3-b]pyridin-4-yl)phenyl)-3,5-dimethylpiperidin-4-ol] was 8.77.

Regarding `Cc1cc(-c2ccnc3[nH]cc(F)c23)ncc1[C@@]1(O)[C@H](C)CN(C2CCC2)C[C@@H]1C` [Compound 48, (3R,4s,5S)-1-cyclobutyl-4-(6-(3-fluoro-1H-pyrrolo[2,3-b]pyridin-4-yl)-4-methylpyridin-3-yl)-3,5-dimethylpiperidin-4-ol], the pIC50 is 8.54. The value for `Cc1cc(-c2ccnc3[nH]cc(F)c23)ncc1[C@@]1(O)[C@H](C)CN(C2CCS(=O)(=O)CC2)C[C@@H]1C` [Compound 51, 4-((3R,4s,5S)-4-(6-(3-fluoro-1H-pyrrolo[2,3-b]pyridin-4-yl)-4-methylpyridin-3-yl)-4-hydroxy-3,5-dimethylpiperidin-1-yl)tetrahydro-2H-thiopyran 1,1-dioxide] was 5.68. Consider `Cc1cc(-c2ccnc3[nH]cc(F)c23)ccc1[C@@]1(O)[C@H](C)CN(C2CCC2)C[C@@H]1C` [Compound 54, (3R,4s,5S)-1-cyclobutyl-4-(4-(3-fluoro-1H-pyrrolo[2,3-b]pyridin-4-yl)-2-methylphenyl)-3,5-dimethylpiperidin-4-ol], for which the pIC50 was 8.60.

With `Cc1cc(-c2ccnc3[nH]cc(F)c23)ccc1[C@@]1(O)[C@H](C)CN(C2CCS(=O)(=O)CC2)C[C@@H]1C` [Compound 55, 4-((3R,4s, 5S)-4-(4-(3-fluoro-1H-pyrrolo[2,3-b]pyridin-4-yl)-2-methylphenyl)-4-hydroxy-3,5S-dimethylpiperidin-1-yl)tetrahydro-2H-thiopyran 1,1-dioxide], the pIC50 was 8.05.

Take `Cc1cc(-c2ccnc3[nH]cc(F)c23)cc(F)c1[C@@]1(O)[C@H](C)CN(C2CCS(=O)(=O)CC2)C[C@@H]1C` [Compound 57, 4-((3R,4s,5S)-4-(2-fluoro-4-(3-fluoro-1H-pyrrolo[2,3-b]pyridin-4-yl)-6-methylphenyl)-4-hydroxy-3,5-dimethylpiperidin-1-yl)tetrahydro-2H-thiopyran 1,1-dioxide]: the negative-log IC50 (pIC50) is 8.36. As for `C[C@@H]1CN(C(=O)CN)C[C@H](C)[C@@]1(O)c1c(F)cc(-c2ccnc3[nH]cc(F)c23)cc1F` [Compound 58], the pIC50 is 7.66. With `Cc1cc(-c2ccnc3[nH]cc(F)c23)ccc1[C@@]1(O)[C@H](C)CN(C(=O)CN)C[C@@H]1C` [Compound 60, 2-amino-1-((3R,4s,5S)-4-(4-(3-fluoro-1H-pyrrolo[2,3-b]pyridin-4-yl)-2-methylphenyl)-4-hydroxy-3,5-dimethylpiperidin-1-yl)ethan-1-one], the pIC50 is 8.08. On to `Cc1cc(-c2ccnc3[nH]cc(F)c23)cc(F)c1[C@@]1(O)[C@H](C)CN(C(=O)CN)C[C@@H]1C` [Compound 61, 2-amino-1-((3R,4s,5S)-4-(2-fluoro-4-(3-fluoro-1H-pyrrolo[2,3-b]pyridin-4-yl)-6-methylphenyl)-4-hydroxy-3,5-dimethylpiperidin-1-yl)ethan-1-one], for which the pIC50 was 8.49.
